Assay results as given in patent publication US20260325533A1, “CDK INHIBITOR COMPOUNDS” (ALEKSIA THERAPEUTICS, INC., priority 2023, published 2026).
Like-named read-outs stand apart in the source and are kept apart here. Each block holds one compound with its values, some of them ahead of it.

Legend:
Assay type in all cases: biochemical
CDK4/CCND3 = CDK4/CCND3 (Homo sapiens, UniProt P11802); assay: CDK4 homogeneous time-resolved fluorescence (HTRF) kinase assay; details: CDK4/CCND
Outline: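 CDK4/CCND3 at 1.5 nM was preincubated with compound for 20 min at 23 °C, then reacted for 60 min with 1 mM ATP and 50 nM ULight-4E-BP1 (Thr37/46) peptide. The reaction was stopped with EDTA, and phosphorylation was read by HTRF with a Eu-anti-phospho antibody. IC50 values came from 11-point half-log titrations, typically from 10 μM.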

CDK6/CCND1 = CDK6/CCND1 (Homo sapiens, UniProt Q00534); assay: CDK6 homogeneous time-resolved fluorescence (HTRF) kinase assay; details: CDK6/CCND
Outline: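 Enzyme pre-incubated 20 min at 23 °C with compound, then reacted 60 min at 23 °C with 1 mM ATP and 50 nM ULight-4E-BP1 (Thr37/46) peptide; 1 nM enzyme, 1% DMSO. EDTA-stopped, Eu-anti-phospho antibody TR-FRET read (665 nm or 665/615 ratio); 11-point half-log titration from 10 μM gave IC50.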

CDK2/CCNE1 = CDK2/CCNE1 (Homo sapiens, UniProt P24941); assay: CDK2 homogeneous time-resolved fluorescence (HTRF) kinase assay; details: CDK2/CCNE
Outline: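 Compounds were titrated 11-point, half-log from typically 10 μM against 3 nM CDK2/cyclin E1 at 1 mM ATP, with a 20 min enzyme preincubation. Phosphorylation of 50 nM ULight-4E-BP1 peptide over 60 min at 23 °C was detected by europium anti-phospho antibody TR-FRET.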

CDK1/CCNB1 = CDK1/CCNB1 (Homo sapiens, UniProt P06493); assay: CDK1 homogeneous time-resolved fluorescence (HTRF) kinase assay; details: CDK1/CCNB
Outline: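 HTRF assay with 0.5 nM CDK1/CCNB1, 1 mM ATP, 50 nM ULight-eIF4E-BP1 (Thr37/46) peptide; compound preincubated 20 min, reaction 60 min at 23 °C, EDTA stop, Eu-anti-phospho antibody detection. 11-point half-log titration from 10 μM, 1% DMSO; IC50 from 665 nm or 665/615 signal.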

[1] = <25 nM, read-out: CDK2/CCNE IC50, <25 nM
[2] = >250 nM, read-out: CDK1/CCNB IC50 >250 nM
[3] = >250 nM, read-out: CDK4/CCND IC50, >250 nM
[4] = >250 nM, 1 mM ATP, read-out: CDK6/CCND IC50, >250 nM
[5] = 25-250 nM, read-out: CDK2/CCNE IC50, 25-250 nM
[6] = 25-250 nM marked x, read-out: CDK6/CCND IC50 25-250 nM
[7] = <25 nM, read-out: CDK2/CCNE IC50 <25 nM
[8] = 25-250 nM marked x, read-out: CDK1/CCNB IC50 25-250 nM
[9] = 25-250 nM marked x, read-out: CDK2/CCNE IC50 25-250 nM
[10] = >250 nM marked x, read-out: CDK1/CCNB IC50 >250 nM
[11] = x = IC50 >250 nM, read-out: CDK4/CCND IC50 (>250 nM column)
[12] = x = IC50 >250 nM, read-out: CDK6/CCND IC50 (>250 nM column)
[13] = x = IC50 25-250 nM, read-out: CDK2/CCNE IC50 (25-250 nM)
[14] = x = IC50 >250 nM, read-out: CDK1/CCNB IC50 (>250 nM column)
[15] = <25 nM, read-out: CDK4/CCND IC50 <25 nM
[16] = x = IC50 <25 nM, read-out: CDK2/CCNE IC50 (<25 nM)
[17] = x = IC50 25-250 nM, read-out: CDK1/CCNB IC50 (25-250 nM)
[18] = <25 nM, read-out: CDK6/CCND IC50 <25 nM

Chain of CDK1/CCNB1 (P06493 whole entry): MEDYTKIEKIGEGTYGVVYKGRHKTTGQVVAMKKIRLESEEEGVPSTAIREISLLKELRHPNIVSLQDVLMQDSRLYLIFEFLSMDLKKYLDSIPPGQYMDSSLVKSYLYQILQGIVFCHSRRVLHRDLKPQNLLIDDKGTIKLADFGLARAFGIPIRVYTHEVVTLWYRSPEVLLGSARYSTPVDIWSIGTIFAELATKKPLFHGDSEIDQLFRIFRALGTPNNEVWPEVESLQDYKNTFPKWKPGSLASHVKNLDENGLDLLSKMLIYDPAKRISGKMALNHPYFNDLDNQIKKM
Chain of CDK1/CCNB1 (P14635 whole entry partner): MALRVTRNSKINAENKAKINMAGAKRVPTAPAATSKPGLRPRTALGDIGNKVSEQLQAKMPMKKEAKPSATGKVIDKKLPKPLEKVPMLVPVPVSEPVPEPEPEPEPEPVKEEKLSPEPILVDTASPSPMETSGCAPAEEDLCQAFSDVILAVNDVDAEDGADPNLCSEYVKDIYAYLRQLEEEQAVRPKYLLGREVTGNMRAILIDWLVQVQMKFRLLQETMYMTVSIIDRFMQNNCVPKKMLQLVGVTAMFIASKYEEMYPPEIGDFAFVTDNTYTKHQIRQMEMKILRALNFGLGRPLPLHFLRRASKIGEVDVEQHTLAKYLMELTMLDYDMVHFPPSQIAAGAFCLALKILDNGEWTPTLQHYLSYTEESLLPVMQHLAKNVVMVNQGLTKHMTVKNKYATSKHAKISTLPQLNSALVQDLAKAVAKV
Chain of CDK6/CCND1 (Q00534 whole entry): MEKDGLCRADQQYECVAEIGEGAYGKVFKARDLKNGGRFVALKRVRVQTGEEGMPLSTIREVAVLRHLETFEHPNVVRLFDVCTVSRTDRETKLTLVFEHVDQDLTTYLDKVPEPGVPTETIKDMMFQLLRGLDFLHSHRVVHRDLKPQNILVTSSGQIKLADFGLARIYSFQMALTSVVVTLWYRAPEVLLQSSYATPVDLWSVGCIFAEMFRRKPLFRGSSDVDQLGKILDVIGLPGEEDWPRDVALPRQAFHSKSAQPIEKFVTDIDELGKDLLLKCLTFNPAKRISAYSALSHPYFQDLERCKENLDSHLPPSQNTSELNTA
Chain of CDK6/CCND1 (P24385 whole entry partner): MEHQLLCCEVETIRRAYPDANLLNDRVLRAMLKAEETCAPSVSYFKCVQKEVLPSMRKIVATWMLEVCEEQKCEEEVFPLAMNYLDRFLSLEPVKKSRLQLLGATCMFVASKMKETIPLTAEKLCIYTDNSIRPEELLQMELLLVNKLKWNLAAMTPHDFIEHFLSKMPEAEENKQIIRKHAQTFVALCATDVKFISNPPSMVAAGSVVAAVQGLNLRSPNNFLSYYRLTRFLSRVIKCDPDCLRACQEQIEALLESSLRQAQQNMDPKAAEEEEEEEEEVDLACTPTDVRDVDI
Chain of CDK4/CCND3 (P11802 whole entry): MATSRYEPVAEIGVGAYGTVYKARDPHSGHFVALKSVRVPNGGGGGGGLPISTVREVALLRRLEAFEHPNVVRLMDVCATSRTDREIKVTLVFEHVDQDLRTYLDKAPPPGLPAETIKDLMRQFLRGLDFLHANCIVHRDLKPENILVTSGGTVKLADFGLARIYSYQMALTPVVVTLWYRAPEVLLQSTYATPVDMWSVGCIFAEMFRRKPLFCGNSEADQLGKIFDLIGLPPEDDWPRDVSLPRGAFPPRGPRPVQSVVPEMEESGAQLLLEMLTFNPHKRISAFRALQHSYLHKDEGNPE
Chain of CDK4/CCND3 (P30281 whole entry partner): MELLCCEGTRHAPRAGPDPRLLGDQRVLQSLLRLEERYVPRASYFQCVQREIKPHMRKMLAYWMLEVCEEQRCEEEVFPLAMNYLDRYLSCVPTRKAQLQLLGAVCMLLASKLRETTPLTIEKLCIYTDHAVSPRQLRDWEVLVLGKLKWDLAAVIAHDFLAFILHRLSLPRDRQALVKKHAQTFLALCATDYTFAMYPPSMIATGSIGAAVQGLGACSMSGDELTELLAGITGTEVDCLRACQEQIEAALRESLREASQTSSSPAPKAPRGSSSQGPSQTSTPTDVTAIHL

SMILES: Cc1c(-c2nccc3cnc(Nc4ccc(S(=O)(=O)Nc5ncc(C(F)(F)F)cn5)cc4)cc23)ccc2c1cnn2CC(C)(C)O [Ex 894, 4-((5-(1-(2-hydroxy-2-methylpropyl)-4-methyl-1H-indazol-5-yl)-2,6-naphthyridin-3-yl)amino)-N-(5-(trifluoromethyl)pyrimidin-2-yl)benzenesulfonamide]
IC50 (CDK4/CCND3; [3]): > 250 nM | IC50 (CDK6/CCND1; [4]): > 250 nM | IC50 (CDK2/CCNE1; [5]): 25 to 250 nM | IC50 (CDK1/CCNB1; [2]): > 250 nM

SMILES: CC(C)(C)c1nccc2cnc(Nc3ccc(S(C)(=O)=O)cc3)cc12 [Ex 244, 5-(tert-butyl)-N-(4-(methylsulfonyl)phenyl)-2,6-naphthyridin-3-amine]
IC50 (CDK4/CCND3; >250 nM marked x, read-out: CDK4/CCND IC50 >250 nM): > 250 nM | IC50 (CDK6/CCND1; [6]): 25 to 250 nM | IC50 (CDK2/CCNE1; [9]): 25 to 250 nM | IC50 (CDK1/CCNB1; [10]): > 250 nM

SMILES: CC(C)c1nccc2cnc(NC3CCN(S(C)(=O)=O)CC3)cc12 [Example 6, 5-isopropyl-N-(1-(methylsulfonyl)piperidin-4-yl)-2,6-naphthyridin-3-amine]
IC50 (CDK4/CCND3; [15]): < 25 nM | IC50 (CDK6/CCND1; [6]): 25 to 250 nM | IC50 (CDK2/CCNE1; [7]): < 25 nM | IC50 (CDK1/CCNB1; [8]): 25 to 250 nM

SMILES: Cc1c(-c2nccc3cnc(Nc4ccc(S(=O)(=O)Nc5cc(C(F)(F)F)ccn5)cc4)cc23)ccc2c1cnn2CC(O)(C(F)(F)F)C(F)(F)F [Ex 740, 4-((5-(4-methyl-1-(3,3,3-trifluoro-2-hydroxy-2-(trifluoromethyl)propyl)-1H-indazol-5-yl)-2,6-naphthyridin-3-yl)amino)-N-(4-(trifluoromethyl)pyridin-2-yl)benzenesulfonamide]
IC50 (CDK4/CCND3; [3]): > 250 nM | IC50 (CDK6/CCND1; [4]): > 250 nM | IC50 (CDK2/CCNE1; >250 nM, read-out: CDK2/CCNE IC50, >250 nM): > 250 nM | IC50 (CDK1/CCNB1; [2]): > 250 nM

SMILES: Cc1c(-c2nccc3cnc(Nc4ccc(S(=O)(=O)Nc5ccccn5)cc4)cc23)ccc2c1cnn2CC(O)(C(F)(F)F)C(F)(F)F [Example 716, 4-((5-(4-methyl-1-(3,3,3-trifluoro-2-hydroxy-2-(trifluoromethyl)propyl)-1H-indazol-5-yl)-2,6-naphthyridin-3-yl)amino)-N-(pyridin-2-yl)benzenesulfonamide]
IC50 (CDK4/CCND3; [3]): > 250 nM | IC50 (CDK6/CCND1; [4]): > 250 nM | IC50 (CDK2/CCNE1; [1]): < 25 nM | IC50 (CDK1/CCNB1; [2]): > 250 nM

SMILES: CN1CCN(c2cc(Nc3cc4c(C#Cc5ccc(=O)[nH]n5)nccc4cn3)cnc2O)CC1 [Example 723, 6-((7-((6-hydroxy-5-(4-methylpiperazin-1-yl)pyridin-3-yl)amino)-2,6-naphthyridin-1-yl)ethynyl)pyridazin-3(2H)-one]
IC50 (CDK4/CCND3; [3]): > 250 nM | IC50 (CDK6/CCND1; [4]): > 250 nM | IC50 (CDK2/CCNE1; [5]): 25 to 250 nM | IC50 (CDK1/CCNB1; [2]): > 250 nM

SMILES: CS(=O)(=O)c1ccc(Nc2cc3c(C4=CCCCC4)nccc3cn2)cc1 [Ex 127, 5-(cyclohex-1-en-1-yl)-N-(4-(methylsulfonyl)phenyl)-2,6-naphthyridin-3-amine]
IC50 (CDK4/CCND3; [15]): < 25 nM | IC50 (CDK6/CCND1; [18]): < 25 nM | IC50 (CDK2/CCNE1; [7]): < 25 nM | IC50 (CDK1/CCNB1; [8]): 25 to 250 nM

SMILES: CN(C)C1CCCN(c2nccc3cnc(NC4CCN(S(C)(=O)=O)CC4)cc23)CC1 (racemic) [Ex 52, 5-(4-(dimethylamino)azepan-1-yl)-N-(1-(methylsulfonyl)piperidin-4-yl)-2,6-naphthyridin-3-amine]
IC50 (CDK4/CCND3; [15]): < 25 nM | IC50 (CDK6/CCND1; [18]): < 25 nM | IC50 (CDK2/CCNE1; [9]): 25 to 250 nM | IC50 (CDK1/CCNB1; [10]): > 250 nM

More lines, now with the values ahead:

IC50 (CDK4/CCND3; 25-250 nM, read-out: CDK4/CCND IC50, 25-250 nM): 25 to 250 nM | IC50 (CDK6/CCND1; 25-250 nM, 1 mM ATP, read-out: CDK6/CCND IC50, 25-250 nM): 25 to 250 nM | IC50 (CDK2/CCNE1; [1]): < 25 nM | IC50 (CDK1/CCNB1; [2]): > 250 nM
SMILES: CC1(C)C(=O)Nc2cc(C#Cc3nccc4cnc(Nc5ccc(S(=N)(=O)NC6CCC6)cc5)cc34)ccc21 (single isomer, unassigned) [Ex 688, N-cyclobutyl-4-((5-((3,3-dimethyl-2-oxoindolin-6-yl)ethynyl)-2,6-naphthyridin-3-yl)amino)benzenesulfonimidamide]

IC50 (CDK4/CCND3; 25-250 nM marked x, read-out: CDK4/CCND IC50 25-250 nM): 25 to 250 nM | IC50 (CDK6/CCND1; [6]): 25 to 250 nM | IC50 (CDK2/CCNE1; [7]): < 25 nM | IC50 (CDK1/CCNB1; [8]): 25 to 250 nM
SMILES: N=S(=O)(c1ccc(Nc2cc3c(C#Cc4ccc5c(c4)NC(=O)C54CC4)nccc3cn2)cc1)C1CC1 (single isomer, unassigned) [Ex 306, 6'-((7-((4-(cyclopropanesulfonimidoyl)phenyl)amino)-2,6-naphthyridin-1-yl)ethynyl)spiro[cyclopropane-1,3'-indolin]-2'-one]

IC50 (CDK4/CCND3; [3]): > 250 nM | IC50 (CDK6/CCND1; [4]): > 250 nM | IC50 (CDK2/CCNE1; [5]): 25 to 250 nM | IC50 (CDK1/CCNB1; [2]): > 250 nM
SMILES: CS(=O)(=O)c1ccc(Nc2cc3c(C#Cc4cc(C(=O)O)c(N)cc4F)nccc3cn2)cc1 [Ex 913, 2-amino-4-fluoro-5-((7-((4-(methylsulfonyl)phenyl)amino)-2,6-naphthyridin-1-yl)ethynyl)benzoic acid]

IC50 (CDK4/CCND3; [3]): > 250 nM | IC50 (CDK6/CCND1; [4]): > 250 nM | IC50 (CDK2/CCNE1; [5]): 25 to 250 nM | IC50 (CDK1/CCNB1; [2]): > 250 nM
SMILES: Cn1cc2ccc(C#Cc3nccc4cnc(Nc5ccc(S(C)(=O)=O)cc5)cc34)cc2n1 [Ex 859, 5-((2-methyl-2H-indazol-6-yl)ethynyl)-N-(4-(methylsulfonyl)phenyl)-2,6-naphthyridin-3-amine]

IC50 (CDK4/CCND3; [11]): > 250 nM | IC50 (CDK6/CCND1; [12]): > 250 nM | IC50 (CDK2/CCNE1; [13]): 25 to 250 nM | IC50 (CDK1/CCNB1; [14]): > 250 nM
SMILES: CS(=O)(=O)c1ccc(Nc2cc3c(C#Cc4ccc(Cl)c(F)c4N)nccc3cn2)cc1 [Ex 530, 5-((2-amino-4-chloro-3-fluorophenyl)ethynyl)-N-(4-(methylsulfonyl)phenyl)-2,6-naphthyridin-3-amine]

IC50 (CDK4/CCND3; [11]): > 250 nM | IC50 (CDK6/CCND1; [12]): > 250 nM | IC50 (CDK2/CCNE1; [13]): 25 to 250 nM | IC50 (CDK1/CCNB1; [14]): > 250 nM
SMILES: CS(=N)(=O)c1ccc(Nc2cc3c(C#Cc4ccc(C#N)cc4)nccc3cn2)cc1 (racemic) [Ex 526, 4-((7-((4-(S-methylsulfonimidoyl)phenyl)amino)-2,6-naphthyridin-1-yl)ethynyl)benzonitrile]

IC50 (CDK4/CCND3; [11]): > 250 nM | IC50 (CDK6/CCND1; [12]): > 250 nM | IC50 (CDK2/CCNE1; [13]): 25 to 250 nM | IC50 (CDK1/CCNB1; [14]): > 250 nM
SMILES: CN(C)c1ncc(C#Cc2nccc3cnc(Nc4ccc(S(C)(=O)=O)cc4)cc23)cn1 [Ex 538, 5-((2-(dimethylamino)pyrimidin-5-yl)ethynyl)-N-(4-(methylsulfonyl)phenyl)-2,6-naphthyridin-3-amine]

IC50 (CDK4/CCND3; x = IC50 25-250 nM, read-out: CDK4/CCND IC50 (25-250 nM)): 25 to 250 nM | IC50 (CDK6/CCND1; [12]): > 250 nM | IC50 (CDK2/CCNE1; [16]): < 25 nM | IC50 (CDK1/CCNB1; [17]): 25 to 250 nM
SMILES: CCNS(=O)(=O)c1ccc(Nc2cc3c(C#Cc4cccnc4N)nccc3cn2)cc1 [Ex 447, 4-((5-((2-aminopyridin-3-yl)ethynyl)-2,6-naphthyridin-3-yl)amino)-N-ethylbenzenesulfonamide]

IC50 (CDK4/CCND3; [3]): > 250 nM | IC50 (CDK6/CCND1; [4]): > 250 nM | IC50 (CDK2/CCNE1; [5]): 25 to 250 nM | IC50 (CDK1/CCNB1; [2]): > 250 nM
SMILES: CC#Cc1nccc2cnc(Nc3ccc(S(=O)(=O)Nc4ncc(C)cn4)cc3)cc12 [Ex 889, N-(5-methylpyrimidin-2-yl)-4-((5-(prop-1-yn-1-yl)-2,6-naphthyridin-3-yl)amino)benzenesulfonamide]

IC50 (CDK4/CCND3; [11]): > 250 nM | IC50 (CDK6/CCND1; [12]): > 250 nM | IC50 (CDK2/CCNE1; [16]): < 25 nM | IC50 (CDK1/CCNB1; [17]): 25 to 250 nM
SMILES: O=C1Nc2cc(C#Cc3nccc4cnc(Nc5ccc(S(=O)(=O)C6CC6)cc5)cc34)ccc2C12CCC2 [Ex 385, 6'-((7-((4-(cyclopropylsulfonyl)phenyl)amino)-2,6-naphthyridin-1-yl)ethynyl)spiro[cyclobutane-1,3'-indolin]-2'-one]
